# Reference: ChEMBL document CHEMBL1201862, “PubChem BioAssay data set” (2004)
#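 Values below derive from 48-hour exposures of cells grown in 96-well plates, with endpoints linearly interpolated between the two concentrations bracketing the appropriate inhibition level. GI50 marks 50% less growth.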 Active and inactive are the calls of the source. Rule as the data show it: active = GI50 up to about 1.1 µM and inactive = higher.
# Experiments:
# Assay in all cases: NCI tumour cell line growth inhibition, 48 h
# [1] = tested on: 786-0
# [2] = tested on: CAKI-1
# [3] = tested on: EKVX
# [4] = tested on: HCT-116
# [5] = tested on: HCT-15
# [6] = tested on: IGROV-1
# [7] = tested on: KM12
# [8] = tested on: LOX IMVI
# [9] = tested on: NCI-H23
# [10] = tested on: NCI-H522
# [11] = tested on: OVCAR-3
# [12] = tested on: OVCAR-5
# [13] = tested on: SK-OV-3
# [14] = tested on: SN12C
# [15] = tested on: SR
# [16] = tested on: UACC-257
# [17] = tested on: UACC-62
# [18] = tested on: MCF7
# [19] = tested on: MDA-MB-231
# [20] = tested on: BT-549
SMILES,GI50 [1],GI50 [2],GI50 [3],GI50 [4],GI50 [5],GI50 [6],GI50 [7],GI50 [8],GI50 [9],GI50 [10],GI50 [11],GI50 [12],GI50 [13],GI50 [14],GI50 [15],GI50 [16],GI50 [17],GI50 [18],GI50 [19],GI50 [20]
COC(=O)C(CC(=O)Nc1ccc(C)cc1)C(=O)C(=O)Nc1ccccc1C(C)C (centres undefined),> 100 µM (inactive),> 100 µM (inactive),> 100 µM (inactive),> 100 µM (inactive),> 100 µM,> 100 µM (inactive),> 100 µM (inactive),> 100 µM (inactive),> 100 µM (inactive),> 100 µM (inactive),> 100 µM (inactive),> 100 µM (inactive),> 100 µM (inactive),> 100 µM (inactive),> 100 µM (inactive),> 100 µM (inactive),> 100 µM (inactive),,,
CO[C@@H]1C[C@H]2[C@@H]3CC[C@H]([C@@H](C)CO)[C@@]3(C)CC[C@@H]2[C@@]2(C)CC[C@H]3C[C@]312,42.1 µM (inactive),89.7 µM (inactive),27.2 µM (inactive),34.4 µM (inactive),33.3 µM,50.9 µM (inactive),19 µM (inactive),19.3 µM (inactive),40.7 µM (inactive),19.7 µM (inactive),45.1 µM (inactive),> 100 µM (inactive),,33 µM (inactive),31.6 µM (inactive),34 µM (inactive),,16.2 µM (inactive),28.3 µM (inactive),
C/C(=N\O)c1ccc(OCc2cc(C(F)(F)F)cc(C(F)(F)F)c2)cc1,41.2 µM (inactive),78.2 µM (inactive),78.5 µM (inactive),31.3 µM (inactive),30.5 µM,75 µM (inactive),19.3 µM (inactive),39 µM (inactive),95.3 µM (inactive),38.1 µM (inactive),> 100 µM (inactive),> 100 µM (inactive),> 100 µM (inactive),46.2 µM (inactive),39.4 µM (inactive),38.5 µM (inactive),,20 µM (inactive),> 100 µM (inactive),
O=C(O)CCCc1ccc2c(c1)CC1(C2)Cc2cc3c(cc2C1)CCCC3,28.6 µM (inactive),,> 100 µM (inactive),2.56 µM (inactive),8.3 µM,20 µM (inactive),19 µM (inactive),17.7 µM (inactive),23.6 µM (inactive),19.2 µM (inactive),19.3 µM (inactive),19.9 µM (inactive),24.7 µM (inactive),22.1 µM (inactive),18.4 µM (inactive),37.7 µM (inactive),> 100 µM (inactive),39.4 µM (inactive),3.24 µM (inactive),
CCN(CC)c1ccc(NC(=S)NN(C)C)cc1,> 10 µM (inactive),> 10 µM (inactive),> 10 µM (inactive),> 10 µM (inactive),> 10 µM,> 10 µM (inactive),> 10 µM (inactive),> 10 µM (inactive),> 10 µM (inactive),> 10 µM (inactive),> 10 µM (inactive),,> 10 µM (inactive),> 10 µM (inactive),> 10 µM (inactive),> 10 µM (inactive),> 10 µM (inactive),> 10 µM (inactive),> 10 µM (inactive),
Cc1cc(NS(=O)(=O)c2ccc(NC(NC(=O)OC(C)C)(C(F)(F)F)C(F)(F)F)cc2)nc(C)n1,> 100 µM (inactive),> 100 µM (inactive),> 100 µM (inactive),> 100 µM (inactive),> 100 µM,> 100 µM (inactive),> 100 µM (inactive),> 100 µM (inactive),> 100 µM (inactive),,> 100 µM (inactive),> 100 µM (inactive),> 100 µM (inactive),> 100 µM (inactive),> 100 µM (inactive),> 100 µM (inactive),> 100 µM (inactive),> 100 µM (inactive),> 100 µM (inactive),
CCCC(OCC)(OCC)OCC,> 100 µM (inactive),> 100 µM (inactive),> 100 µM (inactive),27.5 µM (inactive),> 100 µM,> 100 µM (inactive),> 100 µM (inactive),48.8 µM (inactive),> 100 µM (inactive),> 100 µM (inactive),> 100 µM (inactive),> 100 µM (inactive),> 100 µM (inactive),> 100 µM (inactive),> 100 µM (inactive),> 100 µM (inactive),> 100 µM (inactive),,,
COC(=O)C1(C(=O)OC)N=C(C)OC1C(C)C (centres undefined),> 100 µM (inactive),> 100 µM (inactive),> 100 µM (inactive),> 100 µM (inactive),> 100 µM,,> 100 µM (inactive),> 100 µM (inactive),> 100 µM (inactive),,> 100 µM (inactive),> 100 µM (inactive),> 100 µM (inactive),> 100 µM (inactive),> 100 µM (inactive),> 100 µM (inactive),,> 100 µM (inactive),,> 100 µM (inactive)
